{"source": "paper PMC12645191", "about": "“Dicarboxylate and dicarboxylic acid appended supramolecular self-associating amphiphiles as antimicrobial agents against high priority bacterial pathogens” (Organic & Biomolecular Chemistry, 2025)", "key": {"[1]": {"assay": "kinetic solubility determination in PBS pH 7.4", "conditions": "pH 7.4, aqueous buffer, kinetic from dmso stock"}, "K. pneumoniae M6": {"system": "K. pneumoniae M6", "assay": "inhibition of bacterial growth, OD600 after 20 h", "assay_type": "cell-based, Klebsiella pneumoniae", "conditions": "SSA 5.0 mM, 2.5% ethanol, negative = enhanced growth, listed as 7", "procedure": "(§1) With the self-associative properties of 1–10 established, the antimicrobial activity of these SSAs were determined against a panel of clinically relevant, high-priority pathogens including: P. aeruginosa PAO1; Klebsiella pneumonia (K. pneumoniae) M6; E. coli NCTC 12923; Acinetobacter baumannii (A. baumannii) ATCC 17978; S. aureus ATCC 9144; Enterococcus faecalis (E. faecalis) NCTC 775; and Enterococcus faecium (E. faecium) NCTC 12204. […] However, it should be noted that the SSA stock solution was prepared in a H2O 5% EtOH solution, to ensure that the SSA aggregates formed were in line with those characterised within the scope of the SSA self-association studies.\n(§2) Section 3: Biological methods\n(§3) These methods were taken directly from UK Health and Security Office (UKHSA) standard […]\n(§4) Preparation of Luria Broth media (LB): Yeast extract (5.0 g), tryptone (10.0 g) and sodium chloride (10.0 g) were dissolved in dH₂O (1.0 L) then divided into bottles and autoclaved.\n(§5) Preparation of Luria Broth (LB) agar plates: Agar (6.0 g) was added to LB (400 mL) and autoclaved. Once cool, the LB agar was poured into sterile petri dishes under sterile conditions and allowed to set. LB plates were stored at 4 °C until use.\n(§6) Preparation of bacterial plates: Sterile LB agar plates were streaked using streaked using the desired bacteria i) Pseudomonas aeruginosa (P.aeruginosa) PAO1, ii) Klebsiella pneumoniae (K. pneumoniae) M6 iii) E. coli NCTC 12923 and iv) Acinetobacter baumannii (A. baumannii) ATCC 17978 and Gram-positive i) Staphylococcus aureus (S. aureus) ATCC 9144 ii) Enterococcus faecalis (E. faecalis) NCTC 775 and iii) Enterococcus faecium (E. faecium ) NCTC 12204, then incubated at 37 °C overnight.\n(§7) Preparation of Inoculum: An initial culture was made up by inoculating LB media (5 mL) with a single colony of bacteria under sterile conditions and incubated at 37 °C with shaking overnight. The following day, overnight bacterial cultures were subcultured into fresh LB medium to a starting OD600 of 0.01.\n(§8) Preparation of 96 well microplate for MIC50: The 1:100 cell suspension (150 µL) was dispensed into individual wells under sterile conditions. SSAs (30 µL) were added to the wells to equal a total volume of 180 µL in the wells. Six repeats of each concentration for each SSA were created each plate. The plates were sealed using parafilm, then incubated at 37 °C in a microplate reader for 20 hours. OD600 endpoint data was used to generate growth curves. […]"}, "[2]": {"assay": "dynamic light scattering (DLS) of SSA aggregates", "assay_type": "physicochemical", "conditions": "5.6 mM, H2O 5.0% EtOH, 298 K; listed as 7", "procedure": "Dynamic light scattering (DLS) and zeta potential measurements in H2O 5.0% EtOH were used to determine the hydrodynamic diameter (dH) and stability of the higher-order SSA aggregates detected by (Q) ^1H NMR spectroscopy at 5.6 mM, Table 1. […] However, we are unable to confidently report a dH for 1 due to the instability of this system, which is supported by a zeta potential value of −26 mV, obtained for this SSA under the same experimental conditions. […] Due to the instability of these systems in the absence of solvent, attempts to further characterise these systems through SEM or AFM are not possible.[48]"}, "E. faecalis NCTC 775": {"system": "E. faecalis NCTC 775", "assay": "inhibition of bacterial growth, OD600 after 20 h", "assay_type": "cell-based, Enterococcus faecalis", "conditions": "SSA 5.0 mM, 2.5% ethanol, negative = enhanced growth", "procedure": "as §1, §2, §3, §4, §5, §6, §7, §8"}, "[3]": {"assay": "tensiometry: critical aggregate concentration (CAC) and surface tension", "assay_type": "physicochemical", "procedure": "As the (Q) ^1H NMR spectroscopy experiments conducted at 5.6 mM in a D2O 5.0% EtOH solution confirmed the presence of higher-order self-associated structures with solid-like properties, concentration dependent surface tension measurements, obtained through tensiometry, were used to calculate critical aggregate concentration (CAC). Here the CAC is defined as the point at which an increase in SSA concentration no longer decreases surface tension but instead results in the formation of higher-order self-associated structures."}, "S. aureus ATCC 9144": {"system": "S. aureus ATCC 9144", "assay": "inhibition of bacterial growth, OD600 after 20 h", "assay_type": "cell-based, Staphylococcus aureus", "conditions": "SSA 5.0 mM, 2.5% ethanol, negative = enhanced growth, listed as 7", "procedure": "as §1, §2, §3, §4, §5, §6, §7, §8"}, "E. faecium NCTC 12204": {"system": "E. faecium NCTC 12204", "assay": "inhibition of bacterial growth, OD600 after 20 h", "assay_type": "cell-based, Enterococcus faecium", "conditions": "SSA 5.0 mM, 2.5% ethanol, negative = enhanced growth, listed as 7", "procedure": "as §1, §2, §3, §4, §5, §6, §7, §8"}, "A. baumannii ATCC 17978": {"system": "A. baumannii ATCC 17978", "assay": "inhibition of bacterial growth, OD600 after 20 h", "assay_type": "cell-based, Acinetobacter baumannii", "conditions": "SSA 5.0 mM, 2.5% ethanol, negative = enhanced growth, listed as 7", "procedure": "as §1, §2, §3, §4, §5, §6, §7, §8"}, "E. coli NCTC 12923": {"system": "E. coli NCTC 12923", "assay": "inhibition of bacterial growth, OD600 after 20 h", "assay_type": "cell-based, Escherichia coli", "conditions": "SSA 5.0 mM, 2.5% ethanol, negative = enhanced growth, listed as 7", "procedure": "as §1, §2, §3, §4, §5, §6, §7, §8"}, "[4]": {"assay": "quantitative (Q) 1H NMR spectroscopy, proportion of SSA becoming NMR silent (higher-order aggregates)", "assay_type": "physicochemical", "conditions": "~112 mM, DMSO-d6 1.0% DCM", "procedure": "To confirm the presence of higher order self-associative structures quantitative (Q) ^1H NMR spectroscopy studies were undertaken at 5.6 mM in D2O 5% EtOH. Here the ^1H NMR resonances attributed to the EtOH are used as an internal standard.\nTable S1 – Overview of results of the quantitative (Q) 1H NMR studies for 1, 3, 5, 7 and 9\n5.0 % EtOH . Values given in % represent the observed proportion of the SSA that has become\nTable S2 – Overview of results of the quantitative (Q) 1H NMR studies for 2, 4, 6, 8 and 10\n5.0 % EtOH. Values given in % represent the observed proportion of anion and cation that has"}, "P. aeruginosa PAO1": {"system": "P. aeruginosa PAO1", "assay": "inhibition of bacterial growth, OD600 after 20 h", "assay_type": "cell-based, Pseudomonas aeruginosa", "conditions": "SSA 5.0 mM, 2.5% ethanol, negative = enhanced growth, listed as 7", "procedure": "as §1, §2, §3, §4, §5, §6, §7, §8"}}, "note": "Where “and” joins values, the source holds several entries; their conditions need not be identical. Equal entries are not always repeated.", "data": [{"compound": "CC(=O)[C@H]1CC[C@H]2[C@@H]3CCC4=CC(=O)CC[C@]4(C)[C@H]3CC[C@]12C", "note": "[Progesterone, reference compound]", "values": [{"measurement": "solubility", "setting": "[1]", "result": 14.5, "unit": "µM"}]}, {"compound": "COc1ccc(NC(=O)N[C@@H](CC(=O)O)C(=O)O)cc1", "note": "[SSA 7]", "values": [{"measurement": "Percentage inhibition of bacterial growth, M6 (K. pneumoniae)", "setting": "K. pneumoniae M6", "result": "32.42% and 32%"}, {"measurement": "DLS Peak 2 maxima", "setting": "[2]", "result": 5177, "unit": "nm"}, {"measurement": "Polydispersity index (%)", "setting": "[2]", "result": "19.6 (± 1.7) %"}, {"measurement": "dH (DLS intensity distribution peak 1 maxima)", "setting": "[2]", "result": 214, "unit": "nm"}, {"measurement": "inhibition at 5000 µM", "setting": "E. faecalis NCTC 775; Enterococcus faecalis, NCTC775, 20 h, read-out: Percentage inhibition of bacterial growth, NCTC 775 (E. faecalis)", "result": 47.2, "unit": "%"}, {"measurement": "Percentage inhibition of bacterial growth, NCTC 775 (E. faecalis)", "setting": "E. faecalis NCTC 775; listed as 7", "result": 47, "unit": "%"}, {"measurement": "CAC (footnote in place of a value)", "setting": "[3]; H2O 5.0% EtOH, 298 K", "result": "^b (CAC above the limit of solubility)"}, {"measurement": "ST at CAC", "setting": "[3]; H2O 5.0% EtOH, 298 K, listed as 7", "result": 55, "unit": "mN m^−1"}, {"measurement": "Surface tension at CAC", "setting": "[3]; H2O/5.0 % EtOH, listed as 7", "result": 54.72, "unit": "mN/m"}, {"measurement": "Percentage inhibition of bacterial growth, ATCC 9144 (S. aureus)", "setting": "S. aureus ATCC 9144", "result": "5.65% and 6%"}, {"measurement": "Percentage inhibition of bacterial growth, NCTC 12204 (E. faecium)", "setting": "E. faecium NCTC 12204", "result": "50.11% and 50%"}, {"measurement": "Percentage inhibition of bacterial growth, ATCC 17978 (A. baumannii)", "setting": "A. baumannii ATCC 17978", "result": "24.84% and 25%"}, {"measurement": "Percentage inhibition of bacterial growth, NCTC 12923 (E. coli)", "setting": "E. coli NCTC 12923", "result": "64.22% and 64%"}, {"measurement": "(Q) 1H NMR, proportion NMR silent, SSA acid or anion", "setting": "[4]", "result": 0, "unit": "%"}, {"measurement": "Percentage inhibition of bacterial growth, PAO1 (P. aeruginosa)", "setting": "P. aeruginosa PAO1", "result": "-24.25% and −24%"}]}, {"compound": "O=C(O)Cc1ccccc1Nc1c(Cl)cccc1Cl", "note": "[Diclofenac, reference compound]", "values": [{"measurement": "solubility", "setting": "[1]; PBS, Solubility in PBS pH 7.4, kinetic, upper limit set at 300 µM", "result": 281, "unit": "µM"}]}]}
